{
  "source": "ChEMBL document CHEMBL4229332",
  "about": "“Novel multi-target azinesulfonamides of cyclic amine derivatives as potential antipsychotics with pro-social and pro-cognitive effects” (Eur J Med Chem, 2018)",
  "key": {"[1]": {"target": "T1, 5-hydroxytryptamine receptor 1A (Homo sapiens) (UniProt P08908)", "T1 sequence (whole entry)": "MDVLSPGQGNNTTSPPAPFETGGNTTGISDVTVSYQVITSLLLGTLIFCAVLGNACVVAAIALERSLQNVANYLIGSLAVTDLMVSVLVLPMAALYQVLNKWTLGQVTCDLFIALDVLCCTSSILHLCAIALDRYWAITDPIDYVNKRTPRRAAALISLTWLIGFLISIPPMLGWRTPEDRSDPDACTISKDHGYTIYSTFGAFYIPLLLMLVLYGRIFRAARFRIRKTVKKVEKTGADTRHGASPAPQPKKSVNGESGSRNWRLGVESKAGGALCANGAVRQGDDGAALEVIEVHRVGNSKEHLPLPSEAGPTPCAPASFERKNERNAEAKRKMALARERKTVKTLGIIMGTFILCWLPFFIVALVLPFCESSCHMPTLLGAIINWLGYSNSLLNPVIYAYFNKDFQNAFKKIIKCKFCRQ", "test": "Antagonist activity at human 5-HT1AR expressed in CHO-K1 cells assessed as inhibition of serotonin-induced cAMP accumulation by chemiluminescence-based assay", "type": "functional, cell-based"}, "[2]": {"target": "5-hydroxytryptamine receptor 2A (Homo sapiens, UniProt P28223)", "sequence (P28223 whole entry)": "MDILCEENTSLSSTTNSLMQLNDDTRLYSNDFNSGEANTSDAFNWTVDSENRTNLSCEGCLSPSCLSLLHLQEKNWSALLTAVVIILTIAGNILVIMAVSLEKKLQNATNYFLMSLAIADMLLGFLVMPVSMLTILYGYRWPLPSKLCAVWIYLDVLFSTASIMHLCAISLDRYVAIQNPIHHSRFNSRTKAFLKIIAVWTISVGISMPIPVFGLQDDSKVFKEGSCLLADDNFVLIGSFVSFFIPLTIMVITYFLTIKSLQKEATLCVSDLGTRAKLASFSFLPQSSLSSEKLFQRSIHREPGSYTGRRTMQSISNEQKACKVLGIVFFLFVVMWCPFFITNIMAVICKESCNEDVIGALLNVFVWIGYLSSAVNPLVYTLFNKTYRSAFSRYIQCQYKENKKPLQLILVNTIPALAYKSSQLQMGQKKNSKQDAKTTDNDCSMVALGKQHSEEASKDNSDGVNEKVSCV", "test": "Antagonist activity at human 5-HT2AR expressed in HEK293 cells assessed as inhibition of serotonin-induced IP1 accumulation after 60 mins by HTRF method", "type": "functional, cell-based"}},
  "data": [
    {"smiles": "O=S(=O)(c1cncc2ccccc12)N1CCC[C@H]1CCN1CCN(c2cccc3sccc23)CC1", "values": [
      {"measurement": "Kb", "setting": "[1]", "value": 35.6, "unit": "nM"},
      {"measurement": "Kb", "setting": "[2]", "value": 2.3, "unit": "nM"}
    ]}
  ]
}
